SMILES strings stand for the structures.

Assay [1] deals with T1, SHP-2 enzyme (Met1-Leu525) (Homo sapiens, UniProt Q06124).
T1 construct: synthetized by Origene, Met1-Leu525, cat #TP750155; purchased Origene TP750155
T1 sequence (Q06124 1-525): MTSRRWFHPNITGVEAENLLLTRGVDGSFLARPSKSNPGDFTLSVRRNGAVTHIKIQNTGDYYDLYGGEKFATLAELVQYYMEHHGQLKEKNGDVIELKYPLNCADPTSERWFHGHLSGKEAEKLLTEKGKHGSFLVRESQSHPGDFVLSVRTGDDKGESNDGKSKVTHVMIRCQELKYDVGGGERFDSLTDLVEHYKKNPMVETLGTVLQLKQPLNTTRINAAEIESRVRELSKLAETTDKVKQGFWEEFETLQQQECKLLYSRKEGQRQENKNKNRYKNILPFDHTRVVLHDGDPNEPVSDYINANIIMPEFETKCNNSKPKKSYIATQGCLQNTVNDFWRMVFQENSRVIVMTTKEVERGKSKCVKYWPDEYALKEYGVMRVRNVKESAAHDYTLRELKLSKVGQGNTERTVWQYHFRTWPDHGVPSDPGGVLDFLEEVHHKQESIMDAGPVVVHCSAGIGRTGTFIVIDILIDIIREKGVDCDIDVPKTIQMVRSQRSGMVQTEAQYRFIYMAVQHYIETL
Nature of the assay: SHP2 inhibition enzymatic assay (DiFMUP substrate, IRS1 peptide activation). It is filed as biochemical. As to conditions: 0.5 nM SHP-2, 500 nM IRS1 peptide, 75 μM DiFMUP; read-out: SHP2wt - IC50. As for the experimental part:
Assay volume of 20 μL/well was assembled in 384 well black polystyrene low-binding microplates (Greiner), using the following buffer: 60 mM HEPES pH 7.2, 75 mM NaCl, 75 mM KCl, 1 mM EDTA pH 8, 0.05% tween-20, 5 mM DTT. The SHP-2 enzyme (synthetized by Origene, Met1-Leu525, cat #TP750155) was used at a final concentration of 0.5 nM.
Briefly, DMSO serially diluted testing compounds were transferred to the bottom of the assay plate. SHP2 was then added together with the IRS1 peptide 30 min post incubation, the DiFMUP substrate was added to the reaction and incubated 30 min at rt. […] The fluorescence was detected by a microplate reader (Envision, PerkinElmer) according to the DiFMUP excitation and emission wavelength. The lower the fluorescence the higher the SHP2 inhibition.
The percentage inhibition is fitted against the compound dilutions with a four-parameter logistic regression. The inflection point (i.e. the concentration at which half-maximal inhibition is achieved) is the IC50.

Assay [2] deals with phospho-ERK1/2 (Thr202/Tyr204) in KYSE-520 cells. Nature of the assay: Phospho-ERK cellular assay (TR-FRET). Type of assay: cell-based. The settings on record: Homo sapiens, KYSE-520, 2 h, KYSE-520 cells, 2 h at 37° C.; read-out: pERK IC50. As for the experimental part:
ERK phosphorylation was detected using the “Advanced phospho-ERK1/2 (Thr202/Tyr204)” TR-FRET kit (Cisbio, Cat #64AERPEG/H), following the manufacturer reagents and instructions.
Briefly, 20.000/well KYSE-520 cells (DSMZ ACC 371) were plated in 6 μL RPMI-1640 (Invitrogen) growth medium, into 384 white low-volume high base TC microplates (Greiner). After an overnight incubation, cells were treated with DMSO serial diluted compounds and incubated for 2 h at 37° C. After incubation, 2 μL/well of 4X Lysis Buffer (Cisbio 64KL1FDF), were added and incubated with cells for 30 min on gentle shaking. Finally, lysates were added with 2 μL/well of Eu cryptate (donor) and D2 (acceptor) conjugated antibodies (as provided by the Cisbio kit #64AERPEG/H) diluted 1:100 in Detection Buffer (as provided by the Cisbio kit #64AERPEG/H). Plates were then sealed and incubated at rt in the dark. After an overnight incubation, the TR-FRET signal was detected on a suitable reader (Envision, PerkinElmer). The lower the TR-FRET signal the higher the higher the SHP2 inhibition in cells.
The activity of each compound dilution was calculated as percentage between vehicle DMSO treated cells and no cells, 0% inhibition and 100% inhibition respectively. The percentage activity is fitted against the compound dilutions with a four-parameter logistic regression. The inflection point (i.e. the concentration at which half-maximal inhibition is achieved) is the IC50.

Consider `N[C@@H]1c2ccnn2CC12CCN(c1cnc(Sc3ccnc4c3OC[C@@H]3CC5(CC5)CN43)cn1)CC2` [Example 25, (S)-1-(5-(((S)-6a′,7′-dihydro-6′H,9′H-spiro[cyclopropane-1,8′-pyrido[3,2-b]pyrrolo[1,2-d][1,4]oxazin]-4′-yl)thio)pyrazin-2-yl)-4′H,6′H-spiro[piperidine-4,5′-pyrrolo[1,2-b]pyrazol]-4′-amine], for which the 50% inhibitory concentration (IC50) in assay [1] is at most 50 nM; in assay [2] it was below 100 nM.
`Nc1nccc(Sc2cnc(N3CCC4(CC3)Cn3nc(CO)c(CO)c3[C@H]4N)c3cncn23)c1Cl` [Example 28, (S)-(4′-amino-1-(5-((2-amino-3-chloropyridin-4-yl)thio)imidazo[1,5-a]pyrazin-8-yl)-4′H,6′H-spiro[piperidine-4,5′-pyrrolo[1,2-b]pyrazole]-2′,3′-diyl)dimethanol]: the IC50 in assay [1] is 50 to 300 nM; in assay [2] it was below 100 nM.
For `Nc1nccc(Sc2ncc(N3CCC4(CC3)Cn3nccc3[C@H]4N)n3cncc23)c1Cl` [Example 30, (S)-1-(8-((2-amino-3-chloropyridin-4-yl)thio)imidazo[1,5-a]pyrazin-5-yl)-4′H,6′H-spiro[piperidine-4,5′-pyrrolo[1,2-b]pyrazol]-4′-amine] the same measures were above 300 nM and above 500 nM.
For `N[C@@H]1c2ccnn2CC12CCN(c1ncc(Sc3ccn4ccnc4c3Cl)n3cncc13)CC2` [Example 32, (S)-1-(5-((8-chloroimidazo[1,2-a]pyridin-7-yl)thio)imidazo[1,5-a]pyrazin-8-yl)-4′H,6′H-spiro[piperidine-4,5′-pyrrolo[1,2-b]pyrazol]-4′-amine] the same measures were at most 50 nM and 100 to 500 nM.
For `Cc1cc(C)n(-c2nccc(Sc3cnc(N4CCC5(CC4)Cn4nccc4[C@H]5N)cn3)c2Cl)n1` [Example 34, (S)-1-(5-((3-chloro-2-(3,5-dimethyl-1H-pyrazol-1-yl)pyridin-4-yl)thio)pyrazin-2-yl)-4′H,6′H-spiro[piperidine-4,5′-pyrrolo[1,2-b]pyrazol]-4′-amine] the same measures were at most 50 nM and below 100 nM.
`Nc1nccc(Sc2ccc(N3CCC4(CC3)Cn3nccc3[C@H]4N)nn2)c1Cl` [Example 35, (S)-1-(6-((2-amino-3-chloropyridin-4-yl)thio)pyridazin-3-yl)-4′H,6′H-spiro[piperidine-4,5′-pyrrolo[1,2-b]pyrazol]-4′-amine]: the concentration for half-maximal inhibition (IC50) in assay [1] is at most 50 nM; in assay [2], 100 to 500 nM.
For `Nc1nc(N2CCC3(CC2)Cn2nncc2[C@H]3N)cnc1Sc1cccnc1C(F)(F)F` [Example 36, (S)-1-(6-amino-5-((2-(trifluoromethyl)pyridin-3-yl)thio)pyrazin-2-yl)-4′H,6′H-spiro[piperidine-4,5′-pyrrolo[1,2-c][1,2,3]triazol]-4′-amine] the same measures were at most 50 nM and above 500 nM.
For `Nc1nc(N2CCC3(CC2)Cn2nncc2[C@H]3N)cnc1Sc1ccnc(N)c1Cl` [Example 37, (S)-1-(6-amino-5-((2-amino-3-chloropyridin-4-yl)thio)pyrazin-2-yl)-4′H,6′H-spiro[piperidine-4,5′-pyrrolo[1,2-c][1,2,3]triazol]-4′-amine] the same measures were at most 50 nM and 100 to 500 nM.
For `Nc1nccc(Sc2cnc(N3CCC4(CC3)Cn3nncc3[C@H]4N)n3ccnc23)c1Cl` [Example 39, (S)-1-(8-((2-amino-3-chloropyridin-4-yl)thio)imidazo[1,2-c]pyrimidin-5-yl)-4′H,6′H-spiro[piperidine-4,5′-pyrrolo[1,2-c][1,2,3]triazol]-4′-amine], the 50% inhibitory concentration (IC50) in assay [1] was at most 50 nM; in assay [2] it was 100 to 500 nM.
For `Nc1nccc(-c2n[nH]c3nc(N4CCC5(CC4)Cn4nccc4[C@H]5N)cnc23)c1Cl` [Example 40, (S)-1-(3-(2-amino-3-chloropyridin-4-yl)-1H-pyrazolo[3,4-b]pyrazin-6-yl)-4′H,6′H-spiro[piperidine-4,5′-pyrrolo[1,2-b]pyrazol]-4′-amine] the same measures were at most 50 nM and below 100 nM.
Take `N[C@@H]1c2cnnn2CC12CCN(c1cnc3c(-c4cccc(Cl)c4Cl)n[nH]c3n1)CC2` [Example 41, (S)-1-(3-(2,3-dichlorophenyl)-1H-pyrazolo[3,4-b]pyrazin-6-yl)-4′H,6′H-spiro[piperidine-4,5′-pyrrolo[1,2-c][1,2,3]triazol]-4′-amine]: the IC50 is at most 50 nM in assay [1] and above 500 nM in assay [2].
In the case of `Nc1nccc(Sc2cnc(N3CCC4(CC3)Cn3cnnc3[C@H]4N)cn2)c1Cl` [Example 42, (S)-1-(5-((2-amino-3-chloropyridin-4-yl)thio)pyrazin-2-yl)-5′H,7′H-spiro[piperidine-4,6′-pyrrolo[2,1-c][1,2,4]triazol]-7′-amine], the IC50 was 50 to 300 nM in assay [1] and above 500 nM in assay [2].
For `Cc1nc(N2CCC3(CC2)Cn2nccc2[C@H]3N)c(CO)nc1Sc1ccnc(N)c1Cl` [Example 45, (S)-(6-((2-amino-3-chloropyridin-4-yl)thio)-3-(4′-amino-4′H,6′H-spiro[piperidine-4,5′-pyrrolo[1,2-b]pyrazol]-1-yl)-5-methylpyrazin-2-yl)methanol] the same measures were at most 50 nM and below 100 nM.
For `Cn1c(N2CCC3(CC2)Cn2nccc2[C@H]3N)nc2[nH]nc(-c3ccnc(N)c3Cl)c2c1=O` [Example 46, (S)-3-(2-amino-3-chloropyridin-4-yl)-6-(4′-amino-4′H,6′H-spiro[piperidine-4,5′-pyrrolo[1,2-b]pyrazol]-1-yl)-5-methyl-1,5-dihydro-4H-pyrazolo[3,4-d]pyrimidin-4-one] the same measures were at most 50 nM and below 100 nM.
As to `Nc1cnc(Sc2cnc(N3CCC4(CC3)Cn3nccc3[C@H]4N)cn2)c(Cl)n1` [Example 47, (S)-1-(5-((5-amino-3-chloropyrazin-2-yl)thio)pyrazin-2-yl)-4′H,6′H-spiro[piperidine-4,5′-pyrrolo[1,2-b]pyrazol]-4′-amine], the IC50 is at most 50 nM in assay [1] and below 100 nM in assay [2].
For `N[C@@H]1c2ccnn2CC12CCN(c1cnc(Sc3ccn4c(Cl)cnc4c3Cl)cn1)CC2` [Example 48, (S)-1-(5-((3,8-dichloroimidazo[1,2-a]pyridin-7-yl)thio)pyrazin-2-yl)-4′H,6′H-spiro[piperidine-4,5′-pyrrolo[1,2-b]pyrazol]-4′-amine] the same measures were at most 50 nM and below 100 nM.
For `N[C@@H]1c2c(F)cnn2CC12CCN(c1cnc(Sc3ccn4c(Cl)cnc4c3Cl)cn1)CC2` [Example 50, (S)-1-(5-((3,8-dichloroimidazo[1,2-a]pyridin-7-yl)thio)pyrazin-2-yl)-3′-fluoro-4′H,6′H-spiro[piperidine-4,5′-pyrrolo[1,2-b]pyrazol]-4′-amine] the same measures were at most 50 nM and below 100 nM.
Take `N[C@@H]1c2ccnn2CC12CCN(c1cnc(Sc3ccn4cnnc4c3Cl)cn1)CC2` [Example 51, (S)-1-(5-((8-chloro-[1,2,4]triazolo[4,3-a]pyridin-7-yl)thio)pyrazin-2-yl)-4′H,6′H-spiro[piperidine-4,5′-pyrrolo[1,2-b]pyrazol]-4′-amine]: the concentration for half-maximal inhibition (IC50) in assay [1] is at most 50 nM; in assay [2], 100 to 500 nM.

As usually defined, the IC50 is the concentration at which inhibition is half-maximal.

The values are drawn from patent US20240239799A1, “(S)-1-(5-((PYRIDIN-3-YL)THIO)PYRAZIN-2-YL)-4'H,6'H-SPIRO[PIPERIDINE-4,5'-PYRROLO [1,2-B]PYRAZOL]-4'-AMINE DERIVATIVES AND SIMILAR COMPOUNDS AS SHP2 INHIBITORS FOR THE TREATMENT OF E.G. CANCER” (C.N.C.C.S. S.C.A.R.L. COLLEZIONE NAZIONALE DEI COMPOSTI …, priority 2021, published 2024).
